ChEMBL document CHEMBL5385976, “Recognition of arylmethylidene derivatives of imidazothiazolotriazinones as novel tubulin polymerization inhibitors” (RSC Med Chem, 2024)

What was measured:
[1] = tested on: UO-31; assay: Antiproliferative activity against human UO-31 cells assessed as mean cell growth at 10 uM incubated for 48 hrs by SRB assay relative to control; format: functional
[2] = tested on: MDA-MB-435; assay: Antiproliferative activity against human MDA-MB-435 cells assessed as mean cell growth at 10 uM incubated for 48 hrs by SRB assay relative to control; format: functional
[3] = tested on: HL-60(TB); assay: Antiproliferative activity against human HL-60(TB) cells assessed as mean cell growth at 10 uM incubated for 48 hrs by SRB assay relative to control; format: functional
[4] = tested on: Panel NCI-60 (60 carcinoma cell lines); assay: Antiproliferative activity against human panel NCI-60 (60 carcinoma cell lines) incubated for 48 hrs by SRB assay; format: functional
[5] = tested on: Panel NCI-60 (60 carcinoma cell lines); assay: Antiproliferative activity against human panel NCI-60 (60 carcinoma cell lines) assessed as total inhibition of cell growth incubated for 48 hrs by SRB assay; format: functional
[6] = tested on: SNB-75; assay: Antiproliferative activity against human SNB-75 cells assessed as mean cell growth at 10 uM incubated for 48 hrs by SRB assay relative to control; format: functional
[7] = tested on: SK-OV-3; assay: Antiproliferative activity against human SK-OV-3 cells assessed as mean cell growth at 10 uM incubated for 48 hrs by SRB assay relative to control; format: functional
[8] = tested on: A498; assay: Antiproliferative activity against human A498 cells assessed as mean cell growth at 10 uM incubated for 48 hrs by SRB assay relative to control; format: functional
[9] = tested on: K562; assay: Inhibition of cell growth in human K562 cells incubated for 72 hrs by MTT assay; format: functional, cell-based; conditions: K562, time 72 hrs
[10] = tested on: COLO357; assay: Inhibition of cell growth in human COLO357 cells incubated for 72 hrs by MTT assay; format: functional, cell-based; conditions: COLO357, time 72 hrs
[11] = tested on: Panc02; assay: Inhibition of cell growth in mouse Panc02 cells incubated for 72 hrs by MTT assay; format: functional
[12] = tested on: SK-MEL-5; assay: Antiproliferative activity against human SK-MEL-5 cells assessed as mean cell growth at 10 uM incubated for 48 hrs by SRB assay relative to control; format: functional
[13] = tested on: NCI-H522; assay: Antiproliferative activity against human NCI-H522 cells assessed as mean cell growth at 10 uM incubated for 48 hrs by SRB assay relative to control; format: functional
[14] = tested on: DU-145; assay: Antiproliferative activity against human DU-145 cells assessed as mean cell growth at 10 uM incubated for 48 hrs by SRB assay relative to control; format: functional
[15] = tested on: MDA-MB-468; assay: Antiproliferative activity against human MDA-MB-468 cells assessed as mean cell growth at 10 uM incubated for 48 hrs by SRB assay relative to control; format: functional
[16] = tested on: NCI-H226; assay: Antiproliferative activity against human NCI-H226 cells assessed as mean cell growth at 10 uM incubated for 48 hrs by SRB assay relative to control; format: functional

Structure (SMILES) | Activity [2] | GI50 [4] | LC50 [4] | GI [5] | also measured
COc1ccc(/C=c2\sc3n(c2=O)NC2C(N=3)N(C)C(=O)N2C)cc1 (configuration not stated) | – | – | – | – | Activity [1]: 98%
CCN1C(=O)N(CC)C2Nn3c(s/c(=C\c4cccc([N+](=O)[O-])c4)c3=O)=NC21 (configuration not stated) | 42% | – | – | – | –
CN1C(=O)N(C)C2C1NN=c1s/c(=C\c3ccc(F)cc3)c(=O)n12 (configuration not stated) | – | 3470 nM | > 97600 nM | >81.5 µM | Cell growth relative to control [3]: 28%
CCN1C(=O)N(CC)C2Nn3c(s/c(=C\c4ccccc4F)c3=O)=NC21 (configuration not stated) | 41% | – | – | – | –
CCN1C(=O)N(CC)C2Nn3c(s/c(=C\c4ccc(Br)cc4)c3=O)=NC21 (configuration not stated) | – | – | – | – | Activity [6]: 95%
CCN1C(=O)N(CC)C2Nn3c(s/c(=C\c4ccccc4)c3=O)=NC21 (configuration not stated) | 67% | – | – | – | –
CN1C(=O)N(C)C2Nn3c(s/c(=C\c4ccc(F)cc4)c3=O)=NC21 (configuration not stated) | – | – | – | – | Activity [7]: 103%
CN1C(=O)N(C)C2C1NN=c1s/c(=C\c3cccc([N+](=O)[O-])c3)c(=O)n12 (configuration not stated) | 88% | – | – | – | –
CN1C(=O)N(C)C2C1NN=c1s/c(=C\c3ccc([N+](=O)[O-])cc3)c(=O)n12 (configuration not stated) | 58% | – | – | – | –
CN1C(=O)N(C)C2Nn3c(s/c(=C\c4ccccc4)c3=O)=NC21 (configuration not stated) | – | – | – | – | Activity [8]: 97%
CCN1C(=O)N(CC)C2C1NN=c1s/c(=C\c3ccc(OC)cc3)c(=O)n12 (configuration not stated) | – | 2280 nM | > 95500 nM | >71.4 µM | Cell growth relative to control [3]: 19%; GI50 [9]: 400 nM; GI50 [10]: 400 nM; GI50 [11]: 16 nM
CN1C(=O)N(C)C2Nn3c(s/c(=C\c4ccc(Cl)cc4Cl)c3=O)=NC21 (configuration not stated) | 56% | – | – | – | –
COc1cccc2c1C(=O)c1c(O)c3c(c(O)c1C2=O)C[C@@](O)(C(C)=O)C[C@@H]3O[C@H]1C[C@H](N)[C@H](O)[C@H](C)O1 [DAUNORUBICIN] | – | – | – | – | Activity [12]: -28%
CCN1C(=O)N(CC)C2Nn3c(s/c(=C\c4ccc(F)cc4)c3=O)=NC21 (configuration not stated) | – | – | – | – | Activity [13]: 101%
CN1C(=O)N(C)C2C1NN=c1s/c(=C\c3ccc(Cl)cc3Cl)c(=O)n12 (configuration not stated) | – | 650 nM | > 100000 nM | >78 µM | Cell growth relative to control [3]: 27%; GI50 [9]: 80 nM; GI50 [10]: 80 nM; GI50 [11]: 80 nM
CCN1C(=O)N(CC)C2Nn3c(s/c(=C\c4ccc(C(F)(F)F)cc4)c3=O)=NC21 (configuration not stated) | – | – | – | – | Activity [1]: 100%
CN1C(=O)N(C)C2C1NN=c1s/c(=C\c3ccccc3F)c(=O)n12 (configuration not stated) | – | 610 nM | > 97600 nM | >75.9 µM | Cell growth relative to control [3]: 21%; GI50 [9]: 400 nM; GI50 [10]: 80 nM; GI50 [11]: 16 nM
CN1C(=O)N(C)C2Nn3c(s/c(=C\c4ccccc4F)c3=O)=NC21 (configuration not stated) | 69% | – | – | – | –
CCN1C(=O)N(CC)C2Nn3c(s/c(=C\c4cccc(F)c4)c3=O)=NC21 (configuration not stated) | 65% | – | – | – | –
CC[C@@]1(O)C(=O)OCc2c1cc1n(c2=O)Cc2cc3ccccc3nc2-1 [CAMPTOTHECIN] | – | – | – | – | Activity [12]: -27%
CC(=O)O[C@H]1C(=O)[C@@]2(C)[C@H]([C@H](OC(=O)c3ccccc3)[C@]3(O)C[C@H](OC(=O)[C@H](O)[C@@H](NC(=O)c4ccccc4)c4ccccc4)C(C)=C1C3(C)C)[C@]1(OC(C)=O)CO[C@@H]1C[C@@H]2O [PACLITAXEL] | – | – | – | – | Activity [14]: 15%
CN1C(=O)N(C)C2Nn3c(s/c(=C\c4ccc([N+](=O)[O-])cc4)c3=O)=NC21 (configuration not stated) | – | – | – | – | Activity [8]: 99%

Structure (SMILES) | Activity [2] | GI50 [4] | LC50 [4] | GI [5] | also measured
CCN1C(=O)N(CC)C2Nn3c(s/c(=C\c4ccc(OC)cc4)c3=O)=NC21 (configuration not stated) | 48% | – | – | – | –
CN1C(=O)N(C)C2Nn3c(s/c(=C\c4ccc(C(F)(F)F)cc4)c3=O)=NC21 (configuration not stated) | – | – | – | – | Activity [6]: 102%
CN1C(=O)N(C)C2Nn3c(s/c(=C\c4ccc(Br)cc4)c3=O)=NC21 (configuration not stated) | – | – | – | – | Activity [1]: 98%
CCN1C(=O)N(CC)C2C1NN=c1s/c(=C\c3ccccc3)c(=O)n12 (configuration not stated) | – | 2290 nM | > 97600 nM | >84.6 µM | Cell growth relative to control [3]: 19%; GI50 [9]: 80 nM; GI50 [10]: 80 nM; GI50 [11]: 80 nM
CCN1C(=O)N(CC)C2C1NN=c1s/c(=C\c3ccc(C(F)(F)F)cc3)c(=O)n12 (configuration not stated) | – | 610 nM | > 96600 nM | >65.4 µM | Cell growth relative to control [3]: 19%; GI50 [9]: 2000 nM; GI50 [10]: 2000 nM; GI50 [11]: 2000 nM
CCN1C(=O)N(CC)C2Nn3c(s/c(=C\c4ccc([N+](=O)[O-])cc4)c3=O)=NC21 (configuration not stated) | – | – | – | – | Activity [15]: 67%
COc1ccc(/C=c2\sc3n(c2=O)C2C(NN=3)N(C)C(=O)N2C)cc1 (configuration not stated) | 24% | 7320 nM | > 100000 nM | >83.8 µM | GI50 [9]: 2000 nM; GI50 [10]: 400 nM; GI50 [11]: 400 nM
CN1C(=O)N(C)C2C1NN=c1s/c(=C\c3ccc(C(F)(F)F)cc3)c(=O)n12 (configuration not stated) | 26% | 4210 nM | > 97700 nM | >72.2 µM | –
CN1C(=O)N(C)C2C1NN=c1s/c(=C\c3ccc(Br)cc3)c(=O)n12 (configuration not stated) | 29% | – | – | – | –
CCN1C(=O)N(CC)C2C1NN=c1s/c(=C\c3cccc([N+](=O)[O-])c3)c(=O)n12 (configuration not stated) | – | 2020 nM | > 98700 nM | >83.1 µM | Cell growth relative to control [3]: 23%; GI50 [9]: 400 nM; GI50 [10]: 400 nM; GI50 [11]: 80 nM
CN1C(=O)N(C)C2C1NN=c1s/c(=C\c3ccccc3)c(=O)n12 (configuration not stated) | 41% | – | – | – | –
CCN1C(=O)N(CC)C2C1NN=c1s/c(=C\c3ccc(Br)cc3)c(=O)n12 (configuration not stated) | – | 2570 nM | > 100000 nM | >80.5 µM | Cell growth relative to control [3]: 19%; GI50 [9]: 80 nM; GI50 [10]: 80 nM; GI50 [11]: 400 nM
CCN1C(=O)N(CC)C2C1NN=c1s/c(=C\c3ccc([N+](=O)[O-])cc3)c(=O)n12 (configuration not stated) | – | 1040 nM | > 98600 nM | >63 µM | Cell growth relative to control [3]: 26%; GI50 [9]: 400 nM; GI50 [10]: 400 nM; GI50 [11]: 400 nM
CCN1C(=O)N(CC)C2C1NN=c1s/c(=C\c3ccc(F)cc3)c(=O)n12 (configuration not stated) | – | 1680 nM | > 97800 nM | >81.3 µM | Cell growth relative to control [3]: 21%; GI50 [9]: 400 nM; GI50 [10]: 80 nM; GI50 [11]: 80 nM
CN1C(=O)N(C)C2Nn3c(s/c(=C\c4cccc([N+](=O)[O-])c4)c3=O)=NC21 (configuration not stated) | – | – | – | – | Activity [16]: 92%
CCN1C(=O)N(CC)C2Nn3c(s/c(=C\c4ccccc4Br)c3=O)=NC21 (configuration not stated) | 22% | 2430 nM | > 95000 nM | >53.6 µM | –
CCN1C(=O)N(CC)C2Nn3c(s/c(=C\c4ccc(Cl)cc4Cl)c3=O)=NC21 (configuration not stated) | 40% | – | – | – | –
COc1cccc2c1C(=O)c1c(O)c3c(c(O)c1C2=O)C[C@@](O)(C(=O)CO)C[C@@H]3O[C@H]1C[C@H](N)[C@H](O)[C@H](C)O1 [DOXORUBICIN] | – | – | – | – | Activity [12]: -20%
CCN1C(=O)N(CC)C2C1NN=c1s/c(=C\c3ccccc3F)c(=O)n12 (configuration not stated) | – | 240 nM | > 95500 nM | >63.3 µM | Cell growth relative to control [3]: 18%; GI50 [9]: 16 nM; GI50 [10]: 16 nM; GI50 [11]: 3.2 nM
CCN1C(=O)N(CC)C2C1NN=c1s/c(=C\c3cccc(F)c3)c(=O)n12 (configuration not stated) | 23% | 2450 nM | > 99100 nM | >81.2 µM | GI50 [9]: 80 nM; GI50 [10]: 80 nM; GI50 [11]: 80 nM
CCN1C(=O)N(CC)C2C1NN=c1s/c(=C\c3ccccc3Br)c(=O)n12 (configuration not stated) | – | 920 nM | > 87500 nM | >38.3 µM | Cell growth relative to control [3]: 21%
